# Measured values published in ChEMBL document CHEMBL1146987, “Ketopiperazine-based renin inhibitors: optimization of the "C" ring” (Bioorg Med Chem Lett, 2006).
# Biological target: CYP3A4 (Homo sapiens, UniProt P08684)
# Test: Inhibition of CYP3A4 at 3 uM
# Assay type: ADME
# CYP3A4, sequence (P08684 whole entry): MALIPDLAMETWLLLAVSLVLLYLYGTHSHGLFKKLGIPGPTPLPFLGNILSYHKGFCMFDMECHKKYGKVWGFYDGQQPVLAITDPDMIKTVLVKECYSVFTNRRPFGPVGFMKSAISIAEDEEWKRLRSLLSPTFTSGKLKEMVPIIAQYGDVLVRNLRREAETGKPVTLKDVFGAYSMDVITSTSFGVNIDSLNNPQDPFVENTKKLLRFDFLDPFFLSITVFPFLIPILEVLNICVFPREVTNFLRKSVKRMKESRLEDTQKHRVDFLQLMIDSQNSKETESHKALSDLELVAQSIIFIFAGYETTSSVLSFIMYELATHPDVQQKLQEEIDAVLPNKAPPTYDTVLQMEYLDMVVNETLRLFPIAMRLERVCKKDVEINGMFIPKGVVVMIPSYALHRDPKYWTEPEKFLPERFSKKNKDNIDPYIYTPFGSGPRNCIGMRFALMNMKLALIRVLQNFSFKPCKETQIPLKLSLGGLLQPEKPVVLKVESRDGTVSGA
row,inhibition at 3 µM [%],SMILES
1,92,COCCCN1C(=O)CCc2ccc(OC[C@H]3CNCC(=O)N3c3ccc(OCCCOCc4ccccc4OC)cc3)cc21
2,96,CCC(=O)OCCN1CCCc2ccc(OC[C@H]3CNCC(=O)N3c3ccc(OCCCOCc4ccccc4OC)cc3)cc21
3,95,COCCCN1C(=O)COc2ccc(SC[C@H]3CNCC(=O)N3c3ccc(OCCCOCc4ccccc4OC)cc3)cc21
4,92,COc1ccccc1COCCCOc1ccc(N2C(=O)CNC[C@@H]2COc2ccc3c(c2)N(CCOC(=O)C(C)C)CCC3)cc1
5,71,COc1ccccc1COCCCOc1ccc(N2C(=O)CNC[C@@H]2COc2ccc3c(c2)N(CCCO)CCC3)cc1
6,96,COCCCN1CCCc2ccc(OC[C@H]3CNCC(=O)N3c3ccc(OCCCOCc4ccccc4OC)cc3)cc21
7,87,COc1ccccc1COCCCOc1ccc(N2C(=O)CNC[C@@H]2COc2ccc3c(c2)N(CCOC(C)=O)CCC3)cc1
8,95,COCCCN1C(=O)COc2ccc(OC[C@H]3CNCC(=O)N3c3ccc(OCCCOCc4ccccc4OC)cc3)cc21
9,92,COc1ccccc1COCCCOc1ccc(N2C(=O)CNC[C@@H]2COc2ccc3c(c2)N(CCNC(C)=O)CCC3)cc1

# Biological target: Cytochrome P450 3A4 (Homo sapiens, UniProt P08684)
# Test: Inhibition of CYP3A4 using BFC fluorogenic substrate
# Assay type: ADME
# Cytochrome P450 3A4, sequence (P08684 whole entry): as above
row,IC50 [nM],SMILES
1,35,COCCCN1C(=O)CCc2ccc(OC[C@H]3CNCC(=O)N3c3ccc(OCCCOCc4ccccc4OC)cc3)cc21
2,14,COCCCN1C(=O)COc2ccc(SC[C@H]3CNCC(=O)N3c3ccc(OCCCOCc4ccccc4OC)cc3)cc21
3,54,COc1ccccc1COCCCOc1ccc(N2C(=O)CNC[C@@H]2COc2ccc3c(c2)N(CCOC(=O)C(C)C)CCC3)cc1
4,455,COc1ccccc1COCCCOc1ccc(N2C(=O)CNC[C@@H]2COc2ccc3c(c2)N(CCCO)CCC3)cc1
5,18,COc1ccccc1COCCCOc1ccc(N2C(=O)CNC[C@@H]2COc2ccc3c(c2)N(CCN(C)C(C)=O)CCC3)cc1
6,12,COCCCN1CCCc2ccc(OC[C@H]3CNCC(=O)N3c3ccc(OCCCOCc4ccccc4OC)cc3)cc21
7,15000,COc1ccccc1COCCCOc1ccc(N2C(=O)CNC[C@@H]2CSc2ccc3c(c2)N(CC(=O)O)C(=O)CO3)cc1
8,42,COc1ccccc1COCCCOc1ccc(N2C(=O)CNC[C@@H]2COc2ccc3c(c2)N(CCN2CCCC2=O)CCC3)cc1
9,25000,COc1ccccc1COCCCOc1ccc(N2C(=O)CNC[C@@H]2COc2ccc3c(c2)N(CC(=O)O)C(=O)CO3)cc1
10,3790,COc1ccccc1COCCCOc1ccc(N2C(=O)CNC[C@@H]2COc2ccc3c(c2)N(CCN2CCOC2=O)CCC3)cc1
11,10000,COc1ccccc1COCCCOc1ccc(N2C(=O)CNC[C@@H]2COc2ccc3c(c2)N(CCC(=O)O)CCC3)cc1
12,82,COc1ccccc1COCCCOc1ccc(N2C(=O)CNC[C@@H]2COc2ccc3c(c2)N(CCNC(C)=O)CCC3)cc1

# Biological target: T1, Renin (Homo sapiens, UniProt P00797)
# T1 sequence (P00797 whole entry): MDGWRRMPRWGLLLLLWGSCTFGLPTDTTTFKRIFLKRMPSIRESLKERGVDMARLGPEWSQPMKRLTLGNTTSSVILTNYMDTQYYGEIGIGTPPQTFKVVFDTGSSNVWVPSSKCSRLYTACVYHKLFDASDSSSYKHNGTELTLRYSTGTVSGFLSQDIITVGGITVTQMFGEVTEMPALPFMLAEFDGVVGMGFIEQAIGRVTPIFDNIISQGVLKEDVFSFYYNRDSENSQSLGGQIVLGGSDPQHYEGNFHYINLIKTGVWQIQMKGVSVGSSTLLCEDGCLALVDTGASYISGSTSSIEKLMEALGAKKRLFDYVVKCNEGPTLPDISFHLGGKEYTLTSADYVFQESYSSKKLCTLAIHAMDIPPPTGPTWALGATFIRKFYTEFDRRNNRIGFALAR
# Test: Inhibition of renin
row,IC50 [nM],SMILES
1,550,COc1ccccc1COCCCOc1ccc(N2C(=O)CNC[C@@H]2COc2ccc3c(c2)N(CCOC(=O)C(C)C)CCC3)cc1
2,4,COc1ccccc1COCCCOc1ccc(N2C(=O)CNC[C@@H]2COc2ccc3c(c2)N(CCN(C)C(C)=O)CCC3)cc1
3,1200,COc1ccccc1COCCCOc1ccc(N2C(=O)CNC[C@@H]2CSc2ccc3c(c2)N(CC(=O)O)C(=O)CO3)cc1
4,606,COc1ccccc1COCCCOc1ccc(N2C(=O)CNC[C@@H]2COc2ccc3c(c2)N(CCN2CCCC2=O)CCC3)cc1
5,364,COc1ccccc1COCCCOc1ccc(N2C(=O)CNC[C@@H]2COc2ccc3c(c2)N(CC(=O)O)C(=O)CO3)cc1
6,> 1000,COc1ccccc1COCCCOc1ccc(N2C(=O)CNC[C@@H]2COc2ccc3c(c2)N(CCN2CCOC2=O)CCC3)cc1
7,0.68,COCCCN1C(=O)COc2ccc(OC[C@H]3CNCC(=O)N3c3ccc(OCCCOCc4ccccc4OC)cc3)cc21
8,450,COc1ccccc1COCCCOc1ccc(N2C(=O)CNC[C@@H]2COc2ccc3c(c2)N(CCC(=O)O)CCC3)cc1
9,0.29,COc1ccccc1COCCCOc1ccc(N2C(=O)CNC[C@@H]2COc2ccc3c(c2)N(CCNC(C)=O)CCC3)cc1
